Experimental data as given in US10208288B2, “Differentiation of human embryonic stem cells into pancreatic endocrine cells” (Janssen Biotech, Inc., priority 2012, dated 2019).

Tested on: cells of the human embryonic stem cell line H1 differentiated to stage 6
Assay: Immunostaining for NKX2.2 in stage 6 cultures
Type: cell-based
Conditions: 10 μM at stage 6, immunostaining; in control cultures NKX2.2+ cells distributed uniformly
Method: Cells of the human embryonic stem cell line H1 (hESC H1, passage 40) were seeded as single cells at 1×10^5 cells/cm^2 on MATRIGEL™ (1:30 dilution; BD Biosciences, NJ) coated dishes in mTeSR®1 media (StemCell Technologies, Vancouver, Canada) supplemented with 10 μM of Y27632. Forty-eight hours post seeding, cultures were washed in incomplete PBS (phosphate buffered saline without Mg or Ca). Cultures were differentiated into pancreatic endoderm/endocrine lineages as follows: • a) Stage 1 (Definitive Endoderm (DE)—3 days): Cells were cultured for one day in stage 1 media (see Example 1, above). Cells were then cultured for an additional day in MCDB-131 medium supplemented with 0.1% fatty acid-free BSA, 0.0012 g/ml sodium bicarbonate, 1× GlutaMax™, 4.5 mM D-Glucose, 100 ng/ml GDF8, and 0.1 μM MCX compound. […]

## CCCCCCCCCCCCC/C=C/[C@@H](O)[C@@H](N)COP(=O)(O)O [S1P, sphingosine-1-phosphate]
  NKX2.2+ cells in endocrine clusters: enriched for NKX2.2+ cells
